Results: patent US10154991B2, “Anesthetic compounds and related methods of use” (priority 2012, dated 2018)
Several values for one entry are separate records, joined by “and”; a condition that tells them apart may be missing. Equal values may be shown once.

Key:
[1] = system: 68 receptors, ion channels and transporters; experiment: radioligand binding screen; settings: 10 μM, each radioligand
[2] = system: adrenal cortisol production
Experimental: Dexamethasone (0.01 mg/kg) was administered two hours before the first administration of ACTH and re-administered every 2 hours to maintain suppression. Dexamethasone pretreatment suppresses the hypothalamo-hypophyseal axis to prevent endogenous ACTH release and subsequent adrenocortical steroid secretion. […] Synthetic ACTH (Synacthen, 250 μg) was then administered at times after test substance administration to evaluate the effects of the test substance on the release of the adrenal steroid, cortisol.
All study methods described for Study 1 were repeated, except the ACTH administration at the end of infusion was omitted.

in vivo = settings: rat
rats [3] = experiment: Anesthesia (LORR) in rats by IV bolus and continuous infusion; type: in vivo, rat
Experimental: Rats were monitored for anesthesia as assessed by loss of righting reflex (LORR) and the subsequent time to recovery from LORR. Bolus doses of 1.0 mg/kg and greater induced dose-dependent anesthesia. The minimum effective bolus anesthetic dose in rats was approximately 1 mg/kg based on LORR observations. Time to recovery from LORR was dose-dependent.
Cyclopropyl-MOC-metomidate anesthesia in rats by continuous infusion without a bolus induction dose was examined in this study. An infusion of […] induced anesthesia after approximately 3 minutes as measured by LORR. Recovery of righting reflex took approximately 4 minutes following infusion discontinuation whether the infusion was conducted for 5 or 120 minutes.
Cyclopropyl-MOC-metomidate continuous infusion studies were conducted to determine the minimum effective infusion dose required to induce anesthesia. […] When stable anesthesia was observed after 30 minutes of infusion, the infusion rate was reduced to 0.8 mg/kg/min and then to 0.6 mg/kg/min and 0.4 mg/kg/min at 30-minute intervals. Anesthesia and LORR was maintained in all rats at 0.6 mg/kg/min. […] In one rat, the infusion at 0.4 mg/kg/min was discontinued after 7 minutes due to inadequate the anesthesia. The other two rats received the full 30-minute infusion at […] with no further change. Rats recovered from LORR and resumed normal behavior within 2-6 minutes of stopping the infusion. Based on these observations, the minimum effective infusion dose rate required to maintain anesthesia was determined to be approximately 0.5 mg/kg/min. An independent assessment of “minimal immobilizing infusion rate” of cyclopropyl-MOC-metomidate in rats yielded a value of 0.89±0.18 mg/kg/min.

[4] = Pharmacokinetics in rats, IV bolus and bolus plus infusion
rats [5] = experiment: loss of righting reflexes (LORR) assay after IV bolus
Experimental: Adult male Sprague-Dawley rats (230-350 gm) were purchased from Charles River Laboratories (Wilmington, Mass.) and housed in the Massachusetts General Hospital Center for Comparative Medicine animal care facility. All drugs were administered through a femoral venous catheter pre-implanted by the vendor prior to animal delivery to our animal care facility.
Immediately after injection, rats were turned supine. […] A stopwatch was used to measure the duration of LORR, which was defined as the time from drug injection until the animal spontaneously righted itself.

ICR mice = experiment: In vivo sedative/hypnotic testing, IV bolus, mice; design: species or system mouse; settings: mice
Experimental: Animals were housed in a dedicated room at the vivarium of VivoPath Inc., located at Redstone Center, 55 Union Street, Worcester, Mass. Housing and care was as specified in the USDA Animal Welfare Act (9 CFR, Parts 1, 2, and 3) and as described in the Guide for the Care and Use of Laboratory Animals from the National Research Council. Environmental conditions of housing rooms are set at the following ranges: temperature: 70±7° F. (22±4° C.), humidity: 50±20%, light cycle: 12-hour light/12-hour dark cycle—lights on at 7 am and off at 7 pm., air changes: ten or more air changes per hour with 100% fresh air. The animals' body weights were measured prior to the first dose on each experimental day.
Adult ICR mice (20-30 g) were purchased from Harlan (South Easton, Mass.). Drugs were administered as intravenous bolus injection in a tail vein.
Drugs were prepared in either dimethylsulfoxide/saline or saline vehicle or hydroxypropyl-β-cyclodextrin (20% in water, pH 7.0) solution and were administered as an intravenous bolus injection. Animals received 1-4 doses of drug(s) during an experimental day, either ascending doses or different drugs. Doses were administered at intervals equal to the longer of 1 h or 10-times the duration of apparent sedative/hypnotic effects from the previous dose. The sedative/hypnotic properties of the drugs were evaluated by observation of the rats, ranging from mild excitation, mild sedation apparent due to reduced activity, and moderate sedation to hypnosis reflected by loss of righting reflex (LORR, the ability to place rear and hind legs under the body, as well as attenuation/loss of nociceptive reflexes).

[6] = In vitro metabolic half-life of hypnotics in rat blood; type: in vitro ADME; settings: rat
Experimental: On the day of study, whole blood was drawn from the femoral venous catheters of 3 Sprague-Dawley rats (1-2 ml/rat), immediately anticoagulated with heparin (38 U), pooled, and stored on ice. A 1 ml aliquot of blood was warmed at 37° C. for 5 minutes and hypnotic (from a 40 mM in dimethyl sulfoxide stock solution) was added to a final concentration of 100 μM. After the desired incubation time, a 150 μl sample was removed and the metabolic reaction was quenched with 150 μl acetonitrile (Sigma-Aldrich, St. Louis, Mo.). Zero time point samples were prepared by adding 150 μl acetonitrile to blood prior to adding hypnotic (from a 4 mM in dimethyl sulfoxide stock solution). The quenched samples were centrifuged and the resultant supernatant separated and stored at −20° C. until analyzed. Hypnotic concentrations in thawed samples were determined by high performance liquid chromatography using a Varian Prostar system with a 4.6×250 mm Proto 300 C18 column (Nest Group, Southborough, Mass.) with the UV detector set at 240 nm.

[7] = Octanol:water partition coefficients; type: physicochemical; settings: 10 mM Tris pH 7.4; read-out: Octanol/Water Partition Coefficient ± SD (converted)
Experimental: One mg of each hypnotic was added to 10 ml of water buffered with 10 mM Tris (pH 7.4) and 0.5 ml or 1 ml of octanol. The mixture was stirred overnight and then centrifuged to more fully separate the organic and aqueous phases. The relative hypnotic concentrations in each phase (i.e. the partition coefficient) were determined by high performance liquid chromatography as described for blood.

## COC(=O)C1(OC(=O)c2cncn2[C@H](C)c2ccccc2)CC1 [Cyclopropyl- methoxycarbonyl metomidate, cyclopropyl-methoxycarbonyl metomidate]
[1]
  inhibition of radioligand binding: no more than 25%
[2]; Study 1, dogs, after 120-minute infusion
  ACTH-induced plasma cortisol response: cortisol response to the first ACTH stimulus was inhibited, but the response to the second and third ACTH stimuli at 90 and 180 minute post-infusion were robust
[2]; dogs
  return of normal adrenal responsiveness after cessation of infusion: 1.5 to 3 h
In vivo; both, iv
  concentration at 24 h: < 0.1 ng/mL
  half-life: ~10 min
In vivo
  half-life: ~20 min
Rats [3]
  minimum effective infusion dose rate to maintain anesthesia: approximately 0.5 mg/kg/min
Rats [3]; 4 mg/kg bolus then 1 to 0.4 mg/kg/min step-down infusion
  recovery from LORR and normal behavior after stopping the infusion: 2 to 6 min
Rats [3]; IV bolus, LORR
  minimum effective bolus anesthetic dose: approximately 1 mg/kg
Rats [3]; bolus dose of 4 mg/kg
  duration of anesthesia and LORR: 3 to 8 min
Rats [3]; independent assessment
  minimal immobilizing infusion rate: 0.89 ± 0.18 mg/kg/min
Rats [3]; infusion for 5 or 120 minutes
  recovery of righting reflex after infusion discontinuation: approximately 4 minutes
Rats [3]; infusion of 4 mg/kg without bolus
  time to induction of anesthesia (LORR): approximately 3 minutes
[4]; IV bolus 4-16 mg/kg, first 5 minutes
  first-phase decline of levels: > 10 fold
[4]; bolus and continuous infusion, listed as cyclopropyl-MOC-metomidate
  venous blood concentration when sedated/anesthetized: > 250 ng/mL and > 0.8 μM
[4]; first 30 minutes after 60-minute infusion
  decline of levels after discontinuation of infusion: ~50 fold
Rats [5]; Rattus norvegicus, iv, read-out: ED50 ± SD
  ED50: 0.69 ± 0.04 mg/kg
Rats [5]; rat, in vivo
  hypnotic potency compared with methoxycarbonyl etomidate and etomidate: nearly an order of magnitude higher than that of methoxycarbonyl etomidate and similar to that of etomidate
  in vivo duration of action compared with methoxycarbonyl etomidate and etomidate: intermediate between those of methoxycarbonyl etomidate and etomidate
ICR mice
  slope of duration of LORR vs logarithm of dose: approximately 7
[6]; Sprague-Dawley, pooled heparinised whole blood, rat blood, 37° C., 100 μM, read-out: Blood Half-Life (95% CI)
  half-life at 100 μM: 0.57 min
[6]
  in vitro metabolic half-life compared with methoxycarbonyl etomidate and etomidate: intermediate between those of methoxycarbonyl etomidate and etomidate
[7]
  logD: 2.62
